This passage reports POD vs vehicle results from the supplement of paper PMC11368000.

Bounds are passed on as bounds.

In one experiment the test system is 1516 (donor line of iPSC-derived cardiomyocytes). The experiment can be described thus: POD (EC95) for loss of peak frequency (asystole) vs vehicle; higher = less potent (higher point of departure). The settings on record: exposure time: 90 min. The method, then: (§1)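 Human iPSC-derived cardiomyocytes from 16 donors were exposed for 90 min at 37 °C to each PFAS at 0.1, 1, 10 and 100 µM in 0.5% DMSO, 384-well plates. Kinetic Ca2+ flux (FLIPR) and Hoechst nuclei counts were normalised to vehicle wells and fitted with a hierarchical Bayesian Hill model to give donor-specific PODs: EC05 for beat-rate increase or decrease and for decay-to-rise ratio increase (QT proxy), EC95 for peak-frequency loss (asystole), EC10 for total cell number loss. 0.03 µM is the lower bound.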
As to `NC(=O)C(F)(F)C(F)(F)C(F)(F)C(F)(F)F` [Nonafluoropentanamide], the POD vs vehicle was above 100 µM.
For `NC(=O)C(F)(F)C(F)(F)C(F)(F)C(F)(F)C(N)=O` [Octafluoroadipamide], the POD vs vehicle was above 100 µM.
Still for that read-out and setting: then `O=C(O)C(F)(F)C(F)(F)C(F)(F)C(F)(F)C(=O)O` [Octafluoroadipic_acid], with above 100 µM; and `O=C(O)C(F)(F)C(F)(F)C(F)(F)OC(F)(F)F` [Perfluoro(4-methoxybutanoic)_acid], with above 100 µM.
Turning to `O=C(O)C(F)(F)OC(F)(F)C(F)(F)OC(F)(F)C(F)(F)OC(F)(F)C(F)(F)C(F)(F)C(F)(F)F` [Perfluoro-3,6,9-trioxatridecanoic_acid], the POD vs vehicle amounted to 84.8 µM.
`O=C(O)C(F)(F)OC(F)(F)C(F)(F)OC(F)(F)F` [Perfluoro-3,6-dioxaheptanoic_acid] yielded a POD vs vehicle above 100 µM.
Still for that read-out and setting: to `O=C(O)C(F)(F)OC(F)(F)C(F)(F)OC(F)(F)C(=O)O` [Perfluoro-3,6-dioxaoctane-1,8-dioic_acid] belongs above 100 µM; to `O=C(O)C(F)(F)C(F)(F)OC(F)(F)F` [Perfluoro-3-methoxypropanoic_acid], above 100 µM; to `O=C(O)C(F)(F)C(F)(F)C(F)(F)OC(F)(C(F)(F)F)C(F)(F)F` [Perfluoro-4-isopropoxybutanoic_acid], above 100 µM.
Regarding `O=S(=O)(O)C(F)(F)C(F)(F)C(F)(F)C(F)(F)F` [Perfluorobutanesulfonic_acid], the POD vs vehicle is above 100 µM.

The subject of the next experiment is 1518 (donor line of iPSC-derived cardiomyocytes). The description is as above. The settings on record: exposure time: 90 min. The method, then:
as §1
Turning to `O=S(=O)(O)CCC(F)(F)C(F)(F)C(F)(F)C(F)(F)C(F)(F)C(F)(F)C(F)(F)C(F)(F)F` [8:2 Fluorotelomer sulfonic acid], the POD vs vehicle is above 100 µM.
On to `O=C(O)C(F)(F)C(F)(F)C(F)(F)C(F)(F)C(F)(F)C(F)(F)C(F)(F)C(F)(F)Cl` [9-Chloro-perfluorononanoic_acid], for which the POD vs vehicle is above 100 µM.
Turning to `O=P(O)(O)CCC(F)(F)C(F)(F)C(F)(F)C(F)(F)C(F)(F)C(F)(F)C(F)(F)C(F)(F)F` [((Perfluorooctyl)ethyl)phosphonic_acid], the POD vs vehicle is above 100 µM.
`O=C([O-])C(F)(F)C(F)(F)C(F)(F)C(F)(F)C(F)(F)C(F)(F)C(F)(F)F.[NH4+]` [Ammonium_perfluorooctanoate]: the POD vs vehicle is above 100 µM.
`OCC(F)(F)C(F)(F)C(F)(F)C(F)(F)C(F)(F)C(F)F` [Dodecafluoroheptanol]: the POD vs vehicle is 38.1 µM.
The compound `OCC(F)(F)OC(F)(F)C(F)(F)OC(F)(F)C(F)(F)OC(F)(F)F` [Fluorinated_triethylene_glycol_monomethyl_ether] returned a POD vs vehicle above 100 µM.
Compound `OCC(F)(F)C(F)(F)C(F)(F)F` [Heptafluorobutanol] gave a POD vs vehicle above 100 µM.
Consider `NC(=O)C(F)(F)C(F)(F)C(F)(F)F` [Heptafluorobutyramide], for which the POD vs vehicle is above 100 µM.
`OCC(F)(F)C(F)(F)C(F)(F)CO` [Hexafluoroamylene_glycol] displayed a POD vs vehicle above 100 µM.
The compound `COC(=O)C(F)(F)C(F)(F)OC(F)(C(F)(F)F)C(F)(F)OC(F)=C(F)F` (stereo not given) [Methyl_perfluoro(3-(1-ethenyloxypropan-2-yloxy)propanoate)] gave a POD vs vehicle above 100 µM.
Same read-out and setting: to `NC(=O)C(F)(F)C(F)(F)C(F)(F)C(F)(F)F` [Nonafluoropentanamide] belongs above 100 µM.
In turn, `NC(=O)C(F)(F)C(F)(F)C(F)(F)C(F)(F)C(N)=O` [Octafluoroadipamide] registered a POD vs vehicle above 100 µM.
The same measure, in the same setting: then `O=C(O)C(F)(F)C(F)(F)C(F)(F)C(F)(F)C(=O)O` [Octafluoroadipic_acid], with above 100 µM.
For `O=C(O)C(F)(F)C(F)(F)C(F)(F)OC(F)(F)F` [Perfluoro(4-methoxybutanoic)_acid], the POD vs vehicle was above 100 µM.
Consider `O=C(O)C(F)(F)OC(F)(F)C(F)(F)OC(F)(F)C(F)(F)OC(F)(F)C(F)(F)C(F)(F)C(F)(F)F` [Perfluoro-3,6,9-trioxatridecanoic_acid], for which the POD vs vehicle is above 100 µM.
With `O=C(O)C(F)(F)OC(F)(F)C(F)(F)OC(F)(F)F` [Perfluoro-3,6-dioxaheptanoic_acid], the POD vs vehicle was above 100 µM.
`O=C(O)C(F)(F)OC(F)(F)C(F)(F)OC(F)(F)C(=O)O` [Perfluoro-3,6-dioxaoctane-1,8-dioic_acid] came in with a POD vs vehicle above 100 µM.
In turn, `O=C(O)C(F)(F)C(F)(F)OC(F)(F)F` [Perfluoro-3-methoxypropanoic_acid] displayed a POD vs vehicle above 100 µM.
Regarding `O=C(O)C(F)(F)C(F)(F)C(F)(F)OC(F)(C(F)(F)F)C(F)(F)F` [Perfluoro-4-isopropoxybutanoic_acid], the POD vs vehicle was above 100 µM.
Still for that read-out and setting: to `O=S(=O)(O)C(F)(F)C(F)(F)C(F)(F)C(F)(F)F` [Perfluorobutanesulfonic_acid] belongs above 100 µM.

Another experiment concerns 1531 (donor line of iPSC-derived cardiomyocytes). The experiment is described as above. The settings on record: exposure time: 90 min. The method, then: as §1
Consider `O=S(=O)(O)CCC(F)(F)C(F)(F)C(F)(F)C(F)(F)C(F)(F)C(F)(F)C(F)(F)C(F)(F)F` [8:2 Fluorotelomer sulfonic acid], for which the POD vs vehicle stood at 16.5 µM.
As to `O=C(O)C(F)(F)C(F)(F)C(F)(F)C(F)(F)C(F)(F)C(F)(F)C(F)(F)C(F)(F)Cl` [9-Chloro-perfluorononanoic_acid], the POD vs vehicle was above 100 µM.
`O=P(O)(O)CCC(F)(F)C(F)(F)C(F)(F)C(F)(F)C(F)(F)C(F)(F)C(F)(F)C(F)(F)F` [((Perfluorooctyl)ethyl)phosphonic_acid] yielded a POD vs vehicle above 100 µM.
`O=C([O-])C(F)(F)C(F)(F)C(F)(F)C(F)(F)C(F)(F)C(F)(F)C(F)(F)F.[NH4+]` [Ammonium_perfluorooctanoate] displayed a POD vs vehicle above 100 µM.
Compound `OCC(F)(F)C(F)(F)C(F)(F)C(F)(F)C(F)(F)C(F)F` [Dodecafluoroheptanol] yielded a POD vs vehicle of 42.6 µM.
Regarding `OCC(F)(F)OC(F)(F)C(F)(F)OC(F)(F)C(F)(F)OC(F)(F)F` [Fluorinated_triethylene_glycol_monomethyl_ether], the POD vs vehicle is above 100 µM.
The same measure, in the same setting: then `OCC(F)(F)C(F)(F)C(F)(F)F` [Heptafluorobutanol], with above 100 µM.
`NC(=O)C(F)(F)C(F)(F)C(F)(F)F` [Heptafluorobutyramide] gave a POD vs vehicle above 100 µM.
Regarding `OCC(F)(F)C(F)(F)C(F)(F)CO` [Hexafluoroamylene_glycol], the POD vs vehicle is above 100 µM.
The same measure, in the same setting: to `COC(=O)C(F)(F)C(F)(F)OC(F)(C(F)(F)F)C(F)(F)OC(F)=C(F)F` (stereo not given) [Methyl_perfluoro(3-(1-ethenyloxypropan-2-yloxy)propanoate)] belongs above 100 µM; to `NC(=O)C(F)(F)C(F)(F)C(F)(F)C(F)(F)F` [Nonafluoropentanamide], above 100 µM; to `NC(=O)C(F)(F)C(F)(F)C(F)(F)C(F)(F)C(N)=O` [Octafluoroadipamide], above 100 µM.
Consider `O=C(O)C(F)(F)C(F)(F)C(F)(F)C(F)(F)C(=O)O` [Octafluoroadipic_acid], for which the POD vs vehicle is above 100 µM.
The compound `O=C(O)C(F)(F)C(F)(F)C(F)(F)OC(F)(F)F` [Perfluoro(4-methoxybutanoic)_acid] had a POD vs vehicle above 100 µM.
Still for that read-out and setting: to `O=C(O)C(F)(F)OC(F)(F)C(F)(F)OC(F)(F)C(F)(F)OC(F)(F)C(F)(F)C(F)(F)C(F)(F)F` [Perfluoro-3,6,9-trioxatridecanoic_acid] belongs 11.4 µM; to `O=C(O)C(F)(F)OC(F)(F)C(F)(F)OC(F)(F)F` [Perfluoro-3,6-dioxaheptanoic_acid], above 100 µM; to `O=C(O)C(F)(F)OC(F)(F)C(F)(F)OC(F)(F)C(=O)O` [Perfluoro-3,6-dioxaoctane-1,8-dioic_acid], above 100 µM.
`O=C(O)C(F)(F)C(F)(F)OC(F)(F)F` [Perfluoro-3-methoxypropanoic_acid] yielded a POD vs vehicle above 100 µM.
In turn, `O=C(O)C(F)(F)C(F)(F)C(F)(F)OC(F)(C(F)(F)F)C(F)(F)F` [Perfluoro-4-isopropoxybutanoic_acid] gave a POD vs vehicle above 100 µM.
`O=S(=O)(O)C(F)(F)C(F)(F)C(F)(F)C(F)(F)F` [Perfluorobutanesulfonic_acid]: the POD vs vehicle was above 100 µM.
